Measurements reported in patent US10709704B2, “Treating neural disease with tyrosine kinase inhibitors” (GEORGETOWN UNIVERSITY, priority 2012, dated 2020).

What was measured:
[1] = tested on: mice injected with lentiviral α-synuclein into the substantia nigra; assay: Rotarod, lentiviral α-Synuclein mice; assay type: in vivo, mouse
Excerpt: Mice were placed on an accelerating rotarod (Columbus Instruments) equipped with individual timers for each mouse. […] All values were converted to % control.

caspase-3 activity = assay: Caspase-3 activity, lentiviral α-Synuclein mice; assay type: in vivo, mouse
Excerpt: To measure caspase-3 activity in the animal models, we used EnzChek® caspase-3 assay kit #1 (Invitrogen) on cortical extracts and Z-DEVD-AMC substrate and the […] was read according to manufacturer's protocol.

parkin = assay: Parkin levels in neuroblastoma cells (ELISA, WB); assay type: cell-based
Experimental: Human neuroblastoma M17 or rat B35 cells were grown in 24 well dishes (Falcon). Transient transfection was performed with 3 μg Aβ1-42 cDNA, or 3 μg LacZ cDNA for 24 hr. […] Cells were harvested 48 hr after transfection.
Parkin levels were measured via ELISA using parkin−/− brain extracts as a specificity control (FIG. 66A).

GFP-tagged TDP-43 = assay: Distribution of GFP-tagged TDP-43 in M17 cells; assay type: cell-based, human; set-up: distribution of GFP-tagged TDP-43 / translocation of GFP-tagged TDP-43 with Nilotinib or Bosutinib: unit of the concentration uncertain; settings: Nilotinib (10 µM) or Bosutinib (5 µM) for additional 24 hrs
Experimental: Human neuroblastoma M17 cells (seeding density 2×10^5 cells) were grown in 24 well dishes (Falcon) to 70% confluence in Dulbecco's Modified Eagle Medium (DMEM; Invitrogen) plus 10% (v/v) heat-inactivated fetal bovine serum (Invitrogen), penicillin/streptomycin, and 2 mM L-glutamine at 37° C. and 5% CO2, washed twice in phosphate-buffered saline (PBS). Transient transfection was performed with 3 μg parkin cDNA or 3 μg TDP-43 cDNA, or 3 μg LacZ cDNA. Cells were treated with 5 μM tubacin for 24 hours and DAPI stained in 12 well dishes. Cells were harvested 24 hours after transfection. Transfection was performed in DMEM without serum using Lipofectamine 2000 (Invitrogen) according to the manufacturer's protocol. […] Western blot was performed on NuPAGE 4-12% Bis-Tris gel (Invitrogen). Protein estimation was performed using the microscale BioRad protein assay (BioRad Laboratories Inc, Hercules, Calif., USA).
To ascertain that both parkin and HDAC6 are required for TDP-43 translocation, GFP-tagged TDP-43 was expressed in M17 neuroblastoma cells in the presence of wild type or loss-of-function mutant (T240R) parkin, and treated with 5 μM selective HDAC6 inhibitor for 24 hours.
The following data support these conclusions.

[2] = tested on: Aβ1-42 plaques and intracellular Aβ1-42; assay: Plaque and intracellular Aβ1-42 staining, lentiviral Aβ1-42 wild type mice; assay type: in vivo, mouse
Experimental: Immunohistochemistry was performed on 20 micron-thick 4% paraformaldehyde (PFA) fixed cortical brain sections. Aβ1-42 was probed (1:200) with rabbit polyclonal specific anti-Aβ1-42 antibody (Zymed) that recognizes a.a.1-42, and (1:200) mouse monoclonal antibody (4G8) that recognizes amino acid 17-24 (Covance) and counterstained with DAPI. Parkin was immunoprobed (1:200) with mouse anti-parkin (PRK8) antibody that recognizes amino acid 399-465 (Signet Labs, Dedham, Mass.) and rabbit polyclonal (1:200) anti-parkin (AB5112) antibody that recognizes amino acid 305-622 (Millipore) and counterstained with DAPI. Mouse monoclonal (6E10) antibody (1:100) with DAB were used (Covance) and thioflavin-S was performed according to manufacturer's instructions (Sigma).
Stereological methods were applied by a blinded investigator using unbiased stereology analysis (Stereologer, Systems Planning and Analysis, Chester, Md.) as described in (20,36).

[3] = tested on: dopamine and homovanillic acid (HVA) levels; assay: Dopamine and HVA ELISA, lentiviral α-Synuclein mice; assay type: in vivo, mouse; settings: 10 mg/kg Nilotinib or 5 mg/Kg Bosutinib
Experimental: Total brain or mesencephalon were collected and fresh 50 μl (1 μg/μl) brain lysates (in STEN buffer) were detected with 50 μl primary antibody (1 h) and 100 μl anti-rabbit secondary antibody (30 min) at RT according to manufacturer's protocols (Abnova, Cat # BOLD01090J00011) for DA and (Eagle Biosciences, Cat # HVA34-K01) for HVA.

[4] = tested on: molecular markers of autophagy; assay: Western blot of autophagy markers, A53T mice; assay type: in vivo, mouse; settings: daily IP Nilotinib 3 weeks
Excerpt: (§1) Rabbit polyclonal (1:1000) tubulin (Thermo Scientific) was used.

[5] = tested on: molecular markers of autophagy; assay: Western blot of autophagy markers, lentiviral α-Synuclein mice; assay type: in vivo, mouse; settings: Nilotinib 10 mg/kg IP daily 3 weeks
Excerpt: as §1

## Cc1cn(-c2cc(NC(=O)c3ccc(C)c(Nc4nccc(-c5cccnc5)n4)c3)cc(C(F)(F)F)c2)cn1 [Nilotinib]
[1]; lentiviral α-Synuclein mice + Nilotinib (DMSO 39%)
  rotarod motor performance: 86 % of LacZ level
[1]; lentiviral α-synuclein mice, 10 mg/kg Nilotinib or 5 mg/Kg Bosutinib
  motor performance (rotarod): improved motor performance
caspase-3 activity; LacZ injected mice, daily IP 10 mg/kg
  caspase-3 activity, Nilotinib vs DMSO: did not result in any difference
caspase-3 activity; lentiviral α-Synuclein mice, daily IP 10 mg/kg Nilotinib 3 weeks
  caspase-3 activity: 140 % of LacZ levels
parkin; 10 μM Nilotinib
  increase in parkin (ELISA), non-significant: 17%
parkin; Aβ1-42 + Nilotinib
  increase in parkin (ELISA): 24%
parkin; shRNA beclin-1 + Nilotinib
  increase in Nilotinib-induced parkin on blocking beclin-1 with shRNA (WB): 28%
GFP-tagged TDP-43
  distribution of GFP-tagged TDP-43: translocation of GFP-tagged TDP-43 from nucleus (A) into the cytosol
[2]; Aβ1-42 wild type mice + Nilotinib (DMSO around 48 μm)
  plaque size: 5 μm
[2]; Aβ1-42 wild type mice, Nilotinib daily for 3 weeks
  plaque formation: eliminates plaque formation
[2]; Aβ1-42 wild type mice, Nilotinib treated
  Aβ1-42 positive cells (stereological counting): 5200 cells
[2]; lentiviral Aβ1-42 injected mice, Nilotinib
  intracellular Aβ1-42 accumulation (cortex): eliminated Aβ1-42 accumulation
[3]
  α-synuclein induced loss of dopamine and HVA levels (ELISA): reversed these effects
[4]
  LC3-II level: completely disappeared
  increase in Atg-5 compared to DMSO: 29%
  increase in beclin-1 compared to DMSO: 69%
[5]
  decrease in LC3-II compared to LC3-I: 39%
  decrease in LC3-II compared to MAP-2: 41%
  decrease in P62: 69%
  increase in Atg-5 compared to actin: 43%
  increase in Atg-12 compared to actin: 58%
  increase in beclin-1 compared to actin: 62%
